Columns and labels:
Test in all cases: KINOMEscan kinase profiling
Assay type in all cases: binding
STK35 = target: T1, STK35 (Homo sapiens, UniProt Q8TDR2); settings: read-out: %Inhibition by 10 μM SPA70
T1 construct: purchased DiscoverX (Ambit Biosciences) KINOMEscan
How it was run: (§1)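 KINOMEscan profiling followed a published protocol. Kinases whose inhibition exceeded a set cut-off were then tested in a dilution series beginning at 30 µM.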

PIP5K1A = target: T2, PIP5K1A (Homo sapiens, UniProt Q99755); settings: read-out: %Inhibition by 10 μM SPA70
T2 construct: purchased DiscoverX (Ambit Biosciences) KINOMEscan
How it was run: as §1

[1] = target: T3, RSK4(Kin.Dom.2-C-terminal) (Homo sapiens, UniProt Q9UK32)
T3 construct: RSK4(Kin.Dom.2-C-terminal); purchased DiscoverX (Ambit Biosciences) KINOMEscan
How it was run: as §1

DMPK2 = target: T4, DMPK2 (Homo sapiens, UniProt Q6DT37); settings: read-out: %Inhibition by 10 μM SPA70
T4 construct: purchased DiscoverX (Ambit Biosciences) KINOMEscan
How it was run: as §1

ACVR2A = target: T5, ACVR2A (Homo sapiens, UniProt P27037); settings: read-out: %Inhibition by 10 μM SPA70
T5 construct: purchased DiscoverX (Ambit Biosciences) KINOMEscan
How it was run: as §1

[2] = target: T6, RSK3(Kin.Dom.2-C-terminal) (Homo sapiens, UniProt Q15349); settings: read-out: %Inhibition by 10 μM SPA70
T6 construct: RSK3(Kin.Dom.2-C-terminal); purchased DiscoverX (Ambit Biosciences) KINOMEscan
How it was run: as §1

EPHB4 = target: T7, EPHB4 (Homo sapiens, UniProt P54760); settings: read-out: %Inhibition by 10 μM SPA70
T7 construct: purchased DiscoverX (Ambit Biosciences) KINOMEscan
How it was run: as §1

SLK = target: T8, SLK (Homo sapiens, UniProt Q9H2G2); settings: read-out: %Inhibition by 10 μM SPA70
T8 construct: purchased DiscoverX (Ambit Biosciences) KINOMEscan
How it was run: as §1

DAPK2 = target: T9, DAPK2 (Homo sapiens, UniProt Q9UIK4); settings: read-out: %Inhibition by 10 μM SPA70
T9 construct: purchased DiscoverX (Ambit Biosciences) KINOMEscan
How it was run: as §1

NLK = target: T10, NLK (Homo sapiens, UniProt Q9UBE8); settings: read-out: %Inhibition by 10 μM SPA70
T10 construct: purchased DiscoverX (Ambit Biosciences) KINOMEscan
How it was run: as §1

KIT = target: T11, KIT (Homo sapiens, UniProt P10721)
T11 construct: purchased Ambit Biosciences, now part of DiscoveryX
How it was run: as §1

MAP3K4 = target: T12, MAP3K4 (Homo sapiens, UniProt Q9Y6R4); settings: read-out: %Inhibition by 10 μM SPA70
T12 construct: purchased DiscoverX (Ambit Biosciences) KINOMEscan
How it was run: as §1

NEK11 = target: T13, NEK11 (Homo sapiens, UniProt Q8NG66); settings: read-out: %Inhibition by 10 μM SPA70
T13 construct: purchased DiscoverX (Ambit Biosciences) KINOMEscan
How it was run: as §1

SRPK2 = target: T14, SRPK2 (Homo sapiens, UniProt P78362); settings: read-out: %Inhibition by 10 μM SPA70
T14 construct: purchased DiscoverX (Ambit Biosciences) KINOMEscan
How it was run: as §1

CAMKK1 = target: T15, CAMKK1 (Homo sapiens, UniProt Q8N5S9); settings: read-out: %Inhibition by 10 μM SPA70
T15 construct: purchased DiscoverX (Ambit Biosciences) KINOMEscan
How it was run: as §1

DCAMKL3 = target: T16, DCAMKL3 (Homo sapiens, UniProt Q9C098); settings: read-out: %Inhibition by 10 μM SPA70
T16 construct: purchased DiscoverX (Ambit Biosciences) KINOMEscan
How it was run: as §1

CSNK2A1 = target: T17, CSNK2A1 (Homo sapiens, UniProt P68400); settings: read-out: %Inhibition by 10 μM SPA70
T17 construct: purchased DiscoverX (Ambit Biosciences) KINOMEscan
How it was run: as §1

[3] = target: T18, JAK3(JH1domain-catalytic) (Homo sapiens, UniProt P52333); settings: read-out: %Inhibition by 10 μM SPA70
T18 construct: JAK3(JH1domain-catalytic); purchased DiscoverX (Ambit Biosciences) KINOMEscan
How it was run: as §1

AURKB = target: T19, AURKB (Homo sapiens, UniProt Q96GD4); settings: read-out: %Inhibition by 10 μM SPA70
T19 construct: purchased DiscoverX (Ambit Biosciences) KINOMEscan
How it was run: as §1

TYRO3 = target: T20, TYRO3 (Homo sapiens, UniProt Q06418); settings: read-out: %Inhibition by 10 μM SPA70
T20 construct: purchased DiscoverX (Ambit Biosciences) KINOMEscan
How it was run: as §1

HPK1 = target: T21, HPK1 (Homo sapiens, UniProt Q92918); settings: read-out: %Inhibition by 10 μM SPA70
T21 construct: purchased DiscoverX (Ambit Biosciences) KINOMEscan
How it was run: as §1

SYK = target: T22, SYK (Homo sapiens, UniProt P43405)
T22 construct: purchased DiscoverX (Ambit Biosciences) KINOMEscan
How it was run: as §1

ROCK2 = target: T23, ROCK2 (Homo sapiens, UniProt O75116); settings: read-out: %Inhibition by 10 μM SPA70
T23 construct: purchased DiscoverX (Ambit Biosciences) KINOMEscan
How it was run: as §1

MARK3 = target: T24, MARK3 (Homo sapiens, UniProt P27448); settings: read-out: %Inhibition by 10 μM SPA70
T24 construct: purchased DiscoverX (Ambit Biosciences) KINOMEscan
How it was run: as §1

RET = target: T25, RET (Homo sapiens, UniProt P07949); settings: read-out: %Inhibition by 10 μM SPA70
T25 construct: purchased DiscoverX (Ambit Biosciences) KINOMEscan
How it was run: as §1

ERK5 = target: T26, ERK5 (Homo sapiens, UniProt Q13164); settings: read-out: %Inhibition by 10 μM SPA70
T26 construct: purchased DiscoverX (Ambit Biosciences) KINOMEscan
How it was run: as §1

PKAC-alpha = target: T27, PKAC-alpha (Homo sapiens, UniProt P17612)
T27 construct: purchased DiscoverX (Ambit Biosciences) KINOMEscan
How it was run: as §1

FGFR4 = target: T28, FGFR4 (Homo sapiens, UniProt P22455); settings: read-out: %Inhibition by 10 μM SPA70
T28 construct: purchased DiscoverX (Ambit Biosciences) KINOMEscan
How it was run: as §1

AKT3 = target: T29, AKT3 (Homo sapiens, UniProt Q9Y243); settings: read-out: %Inhibition by 10 μM SPA70
T29 construct: purchased DiscoverX (Ambit Biosciences) KINOMEscan
How it was run: as §1

MRCKA = target: T30, MRCKA (Homo sapiens, UniProt Q5VT25); settings: read-out: %Inhibition by 10 μM SPA70
T30 construct: purchased DiscoverX (Ambit Biosciences) KINOMEscan
How it was run: as §1

TNNI3K = target: T31, TNNI3K (Homo sapiens, UniProt Q59H18); settings: read-out: %Inhibition by 10 μM SPA70
T31 construct: purchased DiscoverX (Ambit Biosciences) KINOMEscan
How it was run: as §1

PAK6 = target: T32, PAK6 (Homo sapiens, UniProt Q9NQU5); settings: read-out: %Inhibition by 10 μM SPA70
T32 construct: purchased DiscoverX (Ambit Biosciences) KINOMEscan
How it was run: as §1

MKK7 = target: T33, MKK7 (Homo sapiens, UniProt O14733)
T33 construct: purchased DiscoverX (Ambit Biosciences) KINOMEscan
How it was run: as §1

FGFR1 = target: T34, FGFR1 (Homo sapiens, UniProt P11362); settings: read-out: %Inhibition by 10 μM SPA70
T34 construct: purchased DiscoverX (Ambit Biosciences) KINOMEscan
How it was run: as §1

BRK = target: T35, BRK (Homo sapiens, UniProt Q13882); settings: read-out: %Inhibition by 10 μM SPA70
T35 construct: purchased DiscoverX (Ambit Biosciences) KINOMEscan
How it was run: as §1

MINK = target: T36, MINK (Homo sapiens, UniProt Q8N4C8); settings: read-out: %Inhibition by 10 μM SPA70
T36 construct: purchased DiscoverX (Ambit Biosciences) KINOMEscan
How it was run: as §1

PRKD2 = target: T37, PRKD2 (Homo sapiens, UniProt Q9BZL6); settings: read-out: %Inhibition by 10 μM SPA70
T37 construct: purchased DiscoverX (Ambit Biosciences) KINOMEscan
How it was run: as §1

NDR1 = target: T38, NDR1 (Homo sapiens, UniProt Q15208); settings: read-out: %Inhibition by 10 μM SPA70
T38 construct: purchased DiscoverX (Ambit Biosciences) KINOMEscan
How it was run: as §1

CLK4 = target: T39, CLK4 (Homo sapiens, UniProt Q9HAZ1); settings: read-out: %Inhibition by 10 μM SPA70
T39 construct: purchased DiscoverX (Ambit Biosciences) KINOMEscan
How it was run: as §1

FLT3 = target: T40, FLT3 (Homo sapiens, UniProt P36888); settings: read-out: %Inhibition by 10 μM SPA70
T40 construct: purchased DiscoverX (Ambit Biosciences) KINOMEscan
How it was run: as §1

[4] = read-out: %Inhibition by 10 μM SPA70

T11 sequence (P10721 26-976): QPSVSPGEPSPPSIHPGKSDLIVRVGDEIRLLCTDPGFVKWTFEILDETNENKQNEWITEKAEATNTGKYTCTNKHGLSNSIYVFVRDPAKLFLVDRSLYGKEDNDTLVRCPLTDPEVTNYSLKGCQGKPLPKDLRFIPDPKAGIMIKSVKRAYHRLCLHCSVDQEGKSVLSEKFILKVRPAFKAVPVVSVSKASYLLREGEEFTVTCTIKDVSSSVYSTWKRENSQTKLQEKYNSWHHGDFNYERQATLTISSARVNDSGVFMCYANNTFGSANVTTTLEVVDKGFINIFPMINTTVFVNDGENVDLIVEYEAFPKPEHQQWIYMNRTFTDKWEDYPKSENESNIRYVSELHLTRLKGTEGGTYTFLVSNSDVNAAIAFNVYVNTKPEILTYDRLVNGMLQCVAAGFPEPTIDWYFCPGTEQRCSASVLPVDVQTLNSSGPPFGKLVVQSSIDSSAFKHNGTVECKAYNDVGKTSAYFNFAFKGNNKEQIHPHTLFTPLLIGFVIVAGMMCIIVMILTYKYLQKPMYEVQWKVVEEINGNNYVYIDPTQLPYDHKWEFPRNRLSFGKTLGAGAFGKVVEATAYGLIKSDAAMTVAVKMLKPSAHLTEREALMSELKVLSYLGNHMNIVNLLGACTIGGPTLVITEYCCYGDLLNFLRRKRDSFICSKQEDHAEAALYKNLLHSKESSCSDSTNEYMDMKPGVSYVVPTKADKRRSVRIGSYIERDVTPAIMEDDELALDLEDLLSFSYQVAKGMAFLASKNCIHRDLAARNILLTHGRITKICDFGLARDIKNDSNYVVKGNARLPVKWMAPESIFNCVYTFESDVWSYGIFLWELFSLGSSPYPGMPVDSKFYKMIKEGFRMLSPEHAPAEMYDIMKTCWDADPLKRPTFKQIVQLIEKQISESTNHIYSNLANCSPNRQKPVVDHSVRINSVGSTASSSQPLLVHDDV
T24 sequence (P27448 whole entry): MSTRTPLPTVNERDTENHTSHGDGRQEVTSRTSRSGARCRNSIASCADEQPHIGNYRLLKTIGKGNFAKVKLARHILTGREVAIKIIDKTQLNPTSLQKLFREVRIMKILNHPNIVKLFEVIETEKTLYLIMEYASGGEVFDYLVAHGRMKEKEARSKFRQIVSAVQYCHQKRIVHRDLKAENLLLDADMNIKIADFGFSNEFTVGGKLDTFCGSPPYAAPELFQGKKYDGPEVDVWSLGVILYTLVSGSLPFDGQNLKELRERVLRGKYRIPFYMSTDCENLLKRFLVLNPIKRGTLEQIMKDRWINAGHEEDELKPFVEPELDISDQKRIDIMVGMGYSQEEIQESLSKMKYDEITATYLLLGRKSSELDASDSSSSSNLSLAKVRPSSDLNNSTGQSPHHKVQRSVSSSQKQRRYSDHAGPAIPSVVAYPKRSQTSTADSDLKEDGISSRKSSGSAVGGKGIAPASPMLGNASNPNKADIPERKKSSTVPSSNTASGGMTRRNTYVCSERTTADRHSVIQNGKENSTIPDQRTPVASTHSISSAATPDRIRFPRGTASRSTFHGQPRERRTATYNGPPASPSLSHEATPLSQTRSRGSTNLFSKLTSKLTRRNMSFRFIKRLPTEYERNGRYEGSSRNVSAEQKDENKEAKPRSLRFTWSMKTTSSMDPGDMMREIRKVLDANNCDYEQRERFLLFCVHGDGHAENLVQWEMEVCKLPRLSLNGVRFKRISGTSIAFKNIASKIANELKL
T7 sequence (P54760 16-987): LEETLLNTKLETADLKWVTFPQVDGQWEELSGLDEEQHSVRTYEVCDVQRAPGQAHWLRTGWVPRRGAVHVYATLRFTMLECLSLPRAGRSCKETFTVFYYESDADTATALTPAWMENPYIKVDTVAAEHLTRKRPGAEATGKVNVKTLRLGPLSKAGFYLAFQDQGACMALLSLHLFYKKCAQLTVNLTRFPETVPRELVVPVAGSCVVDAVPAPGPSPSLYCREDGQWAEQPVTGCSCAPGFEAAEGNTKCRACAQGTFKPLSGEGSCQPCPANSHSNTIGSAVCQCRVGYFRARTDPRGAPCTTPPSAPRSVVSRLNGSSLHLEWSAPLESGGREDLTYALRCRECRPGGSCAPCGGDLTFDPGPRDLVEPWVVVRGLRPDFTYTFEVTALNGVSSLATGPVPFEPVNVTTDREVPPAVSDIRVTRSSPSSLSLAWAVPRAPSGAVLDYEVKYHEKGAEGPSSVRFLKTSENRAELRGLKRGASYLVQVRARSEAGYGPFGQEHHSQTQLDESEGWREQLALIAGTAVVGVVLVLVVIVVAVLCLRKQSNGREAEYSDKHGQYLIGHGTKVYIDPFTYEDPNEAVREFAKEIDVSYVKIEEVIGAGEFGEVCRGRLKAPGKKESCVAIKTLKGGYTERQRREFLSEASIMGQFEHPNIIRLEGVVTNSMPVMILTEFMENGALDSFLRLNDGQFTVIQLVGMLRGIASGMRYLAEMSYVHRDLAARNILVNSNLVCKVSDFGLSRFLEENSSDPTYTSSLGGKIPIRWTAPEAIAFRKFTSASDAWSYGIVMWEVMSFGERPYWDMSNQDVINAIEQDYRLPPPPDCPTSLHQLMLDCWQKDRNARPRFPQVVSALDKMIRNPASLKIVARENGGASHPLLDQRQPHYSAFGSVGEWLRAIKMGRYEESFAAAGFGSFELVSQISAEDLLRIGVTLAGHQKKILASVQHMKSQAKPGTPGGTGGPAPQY
T4 sequence (Q6DT37 whole entry): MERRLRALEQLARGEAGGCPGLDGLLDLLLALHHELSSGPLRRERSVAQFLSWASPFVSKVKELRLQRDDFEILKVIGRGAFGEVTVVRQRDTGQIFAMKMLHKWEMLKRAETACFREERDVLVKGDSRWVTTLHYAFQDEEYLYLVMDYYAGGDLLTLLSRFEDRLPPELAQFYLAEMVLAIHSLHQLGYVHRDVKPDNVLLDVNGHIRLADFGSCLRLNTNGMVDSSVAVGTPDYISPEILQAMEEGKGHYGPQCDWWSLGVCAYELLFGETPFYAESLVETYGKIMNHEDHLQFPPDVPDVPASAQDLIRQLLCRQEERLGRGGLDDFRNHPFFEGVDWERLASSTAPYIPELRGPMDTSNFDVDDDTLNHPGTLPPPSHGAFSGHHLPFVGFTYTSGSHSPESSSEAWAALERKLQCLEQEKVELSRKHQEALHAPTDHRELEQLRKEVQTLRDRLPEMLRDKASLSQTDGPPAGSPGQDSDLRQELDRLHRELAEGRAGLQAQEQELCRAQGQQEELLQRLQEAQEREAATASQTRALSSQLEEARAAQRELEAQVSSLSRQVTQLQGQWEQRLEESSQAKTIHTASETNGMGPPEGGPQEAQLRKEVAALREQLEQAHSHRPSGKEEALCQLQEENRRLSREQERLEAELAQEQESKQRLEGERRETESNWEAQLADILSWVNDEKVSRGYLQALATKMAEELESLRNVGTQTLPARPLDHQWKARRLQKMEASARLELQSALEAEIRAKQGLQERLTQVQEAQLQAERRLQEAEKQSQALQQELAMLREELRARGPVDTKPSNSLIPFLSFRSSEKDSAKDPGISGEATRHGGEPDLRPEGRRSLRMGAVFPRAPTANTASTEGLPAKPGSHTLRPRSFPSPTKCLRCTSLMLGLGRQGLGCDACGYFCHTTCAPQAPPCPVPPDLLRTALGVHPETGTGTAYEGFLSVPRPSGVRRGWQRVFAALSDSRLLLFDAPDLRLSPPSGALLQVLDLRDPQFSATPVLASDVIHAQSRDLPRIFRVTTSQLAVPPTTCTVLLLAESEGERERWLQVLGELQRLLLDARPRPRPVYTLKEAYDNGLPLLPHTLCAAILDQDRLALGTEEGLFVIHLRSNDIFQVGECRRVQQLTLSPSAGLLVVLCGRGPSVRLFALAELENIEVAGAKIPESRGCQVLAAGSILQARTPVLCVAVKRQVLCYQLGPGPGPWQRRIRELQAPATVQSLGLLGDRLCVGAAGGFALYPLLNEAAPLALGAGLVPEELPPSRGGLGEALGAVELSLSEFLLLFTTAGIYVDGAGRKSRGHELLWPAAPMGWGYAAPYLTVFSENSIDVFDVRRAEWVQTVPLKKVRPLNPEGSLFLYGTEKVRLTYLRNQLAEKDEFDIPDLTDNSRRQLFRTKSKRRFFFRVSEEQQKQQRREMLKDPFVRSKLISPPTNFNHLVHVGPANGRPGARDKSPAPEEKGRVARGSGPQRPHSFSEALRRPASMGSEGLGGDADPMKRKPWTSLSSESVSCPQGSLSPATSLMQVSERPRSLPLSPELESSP
T29 sequence (Q9Y243 whole entry): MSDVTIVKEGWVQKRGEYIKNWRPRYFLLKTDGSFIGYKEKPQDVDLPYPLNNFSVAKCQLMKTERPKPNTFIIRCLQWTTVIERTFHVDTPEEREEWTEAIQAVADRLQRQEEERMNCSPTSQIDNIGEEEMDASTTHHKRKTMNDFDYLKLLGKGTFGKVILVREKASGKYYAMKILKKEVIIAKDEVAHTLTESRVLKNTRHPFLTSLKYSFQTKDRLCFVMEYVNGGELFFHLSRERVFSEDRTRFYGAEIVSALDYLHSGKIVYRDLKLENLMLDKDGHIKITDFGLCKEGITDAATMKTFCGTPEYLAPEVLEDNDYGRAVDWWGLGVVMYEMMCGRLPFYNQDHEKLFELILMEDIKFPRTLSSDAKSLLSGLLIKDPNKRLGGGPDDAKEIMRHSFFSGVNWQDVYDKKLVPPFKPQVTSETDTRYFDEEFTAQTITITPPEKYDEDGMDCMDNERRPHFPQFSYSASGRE
T3 sequence (Q9UK32 401-745 limits assumed): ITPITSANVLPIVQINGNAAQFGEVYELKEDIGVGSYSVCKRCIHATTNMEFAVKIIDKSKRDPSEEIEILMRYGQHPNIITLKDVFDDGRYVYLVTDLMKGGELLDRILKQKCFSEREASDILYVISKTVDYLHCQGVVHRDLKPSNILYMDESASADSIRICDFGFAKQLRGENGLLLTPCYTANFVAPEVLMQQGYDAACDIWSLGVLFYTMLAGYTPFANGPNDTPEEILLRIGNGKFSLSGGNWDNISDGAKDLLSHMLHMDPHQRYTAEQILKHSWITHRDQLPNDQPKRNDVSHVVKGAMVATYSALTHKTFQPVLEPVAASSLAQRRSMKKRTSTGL

Question: With `COc1ccc(OC)c(-n2nnc(S(=O)(=O)c3ccc(C(C)(C)C)cc3)c2C)c1` [SPA70] as the compound, how does the inhibition at 10 µM (STK35) read?
Answer: 0%

Question: And the inhibition at 10 µM (PIP5K1A)?
Answer: 0%

Question: And the “%Inhibition by 10 μM SPA70” value [1]?
Answer: 16%

Question: What about the inhibition at 10 µM (DMPK2) of the same compound?
Answer: 3%

Question: What about the inhibition at 10 µM (ACVR2A) of the same compound?
Answer: 0%

Question: What about the inhibition at 10 µM [2] of the same compound?
Answer: 19%

Question: What about the inhibition at 10 µM (EPHB4) of the same compound?
Answer: 0%

Question: What about the inhibition at 10 µM (SLK) of the same compound?
Answer: 9%

Question: And the inhibition at 10 µM (DAPK2)?
Answer: 0%

Question: What about the inhibition at 10 µM (NLK) of the same compound?
Answer: 16%

Question: And the Kd (KIT; 11-point 3-fold serial dilutions starting from 30 µM)?
Answer: 2500 nM

Question: What about the inhibition at 10 µM (KIT; [4]) of the same compound?
Answer: 83%

Question: And the inhibition at 10 µM (MAP3K4)?
Answer: 0%

Question: What about the inhibition at 10 µM (NEK11) of the same compound?
Answer: 34%

Question: And the inhibition at 10 µM (SRPK2)?
Answer: 0%

Question: What about the inhibition at 10 µM (CAMKK1) of the same compound?
Answer: 1%

Question: What about the inhibition at 10 µM (DCAMKL3) of the same compound?
Answer: 0%

Question: And the inhibition at 10 µM (CSNK2A1)?
Answer: 15%

Question: What about the inhibition at 10 µM [3] of the same compound?
Answer: 5%

Question: And the inhibition at 10 µM (AURKB)?
Answer: 8%

Question: And the inhibition at 10 µM (TYRO3)?
Answer: 0%

Question: And the inhibition at 10 µM (HPK1)?
Answer: 1%

Question: What about the “%Inhibition by 10 μM SPA70” value (SYK) of the same compound?
Answer: 0%

Question: And the inhibition at 10 µM (ROCK2)?
Answer: 13%

Question: And the inhibition at 10 µM (MARK3)?
Answer: 2%

Question: And the inhibition at 10 µM (RET)?
Answer: 0%

Question: What about the inhibition at 10 µM (ERK5) of the same compound?
Answer: 0%

Question: What about the “%Inhibition by 10 μM SPA70” value (PKAC-alpha) of the same compound?
Answer: not inhibited

Question: What about the inhibition at 10 µM (PKAC-alpha; [4]) of the same compound?
Answer: 0%

Question: What about the inhibition at 10 µM (FGFR4) of the same compound?
Answer: 5%

Question: And the inhibition at 10 µM (AKT3)?
Answer: 0%

Question: And the inhibition at 10 µM (MRCKA)?
Answer: 0%

Question: What about the inhibition at 10 µM (TNNI3K) of the same compound?
Answer: 0%

Question: What about the inhibition at 10 µM (PAK6) of the same compound?
Answer: 4%

Question: What about the “%Inhibition by 10 μM SPA70” value (MKK7) of the same compound?
Answer: 0%

Question: What about the inhibition at 10 µM (FGFR1) of the same compound?
Answer: 0%

Question: What about the inhibition at 10 µM (BRK) of the same compound?
Answer: 0%

Question: And the inhibition at 10 µM (MINK)?
Answer: 0%

Question: What about the inhibition at 10 µM (PRKD2) of the same compound?
Answer: 9%

Question: What about the inhibition at 10 µM (NDR1) of the same compound?
Answer: 0%

Question: And the inhibition at 10 µM (CLK4)?
Answer: 4%

Question: And the inhibition at 10 µM (FLT3)?
Answer: 0%
